Results as given in article PMC7071106 (Molecules, 2020).
Where two headings read alike, the source gives them in different places.

Assays:
[1] = Cytotoxicity on VERO cell line (sulforhodamine B method); assay type: cell-based, mammalian; details: African green monkey, 1–100 µM, means of three experiments
Description: We cultivated 1.5 × 10^4 VERO cells in a 96-well plate and incubated in DMEM media complemented with 10% fetal bovine serum, 100 µg/mL streptomycin, and 100 UI/mL penicillin. The culture was incubated at 37 °C in a 5% CO2 atmosphere with 95% humidity for 48 h. […] After 48 h of incubation, viability of the cells was estimated using the sulforhodamine B method. The concentration of the compounds that killed 50% of the cells (CC50) was calculated by nonlinear fit (GraphPad Prism 4 software). All concentrations were evaluated in triplicate.

Trichomonas vaginalis = assay: In vitro trichomonicidal susceptibility assay (trophozoite growth inhibition); assay type: cell-based, Trichomonas vaginalis strain GT3; details: for SI = CC50/IC50 T. vaginalis: CC50 VERO cells / IC50 T. vaginalis; for IC50: Trichomonas vaginalis, trophozoites, 48 h incubation then 48 h subculture, means of three experiments, read-out: IC50 T. vaginalis
Description: (§1) G. intestinalis strain IMSS:0696:1 and T. vaginalis strain GT3 were cultured in TYI-S-33 medium, complemented with 10% calf serum and bovine bile. […] Subsequently, trophozoites were washed and subcultured for another 48 h in fresh medium without any drugs. Once this time was reached, trophozoites were counted and the median inhibitory concentration (IC50) was calculated. All the experiments were completed in triplicate.

Giardia duodenalis = assay: In vitro giardicidal susceptibility assay (trophozoite growth inhibition); assay type: cell-based, Giardia duodenalis (G. intestinalis strain IMSS:0696:1); details: for SI = CC50/IC50 G. duodenalis: CC50 VERO cells / IC50 G. duodenalis; for IC50: trophozoites, 48 h incubation then 48 h subculture, means of three experiments, read-out: IC50 G. duodenalis
Description: as §1

In the case of `Cc1ncc([N+](=O)[O-])n1CCOC(=O)Nc1ccccc1` [Compound 2, 2-(2-methyl-5-nitro-1H-imidazol-1-yl)ethyl phenylcarbamate], the CC50 at 48 h ([1]; VERO cells) is reported as greater than 100 µM, the “SI = CC50/IC50 T. vaginalis” value (Trichomonas vaginalis) is reported as greater than 1111 and the IC50 (Trichomonas vaginalis) is reported as 0.09 ± 0.01 µM. For the same compound, the “SI = CC50/IC50 G. duodenalis” value (Giardia duodenalis) was greater than 102 and the IC50 (Giardia duodenalis) was 0.98 ± 0.01 µM.
With `Cc1ncc([N+](=O)[O-])n1CC(C)OC(=O)Nc1ccccc1` (centres unmarked) [Compound 7, 1-methyl-2-(2-methyl-5-nitro-1H-imidazol-1-yl)ethyl phenylcarbamate] the CC50 at 48 h ([1]; VERO cells) was greater than 100 µM, the melting point was 238.9 to 240.5 °C and the “SI = CC50/IC50 T. vaginalis” value (Trichomonas vaginalis) was greater than 15. The IC50 (Trichomonas vaginalis) was 6.52 ± 0.71 µM, the “SI = CC50/IC50 G. duodenalis” value (Giardia duodenalis) was greater than 59 and the IC50 (Giardia duodenalis; Giardia duodenalis, 48 h) was 1.67 ± 0.21 µM.
With `Cc1ncc([N+](=O)[O-])n1CC(C)O` (centres unmarked) [Secnidazole, secnidazole, reference compound] the CC50 at 48 h ([1]; VERO cells) was greater than 100 µM, the “SI = CC50/IC50 T. vaginalis” value (Trichomonas vaginalis) was greater than 7 and the IC50 (Trichomonas vaginalis) was 13.5 ± 1.23 µM. For the same compound, the “SI = CC50/IC50 G. duodenalis” value (Giardia duodenalis) was greater than 24 and the IC50 (Giardia duodenalis; Giardia duodenalis, 48 h) was 4.11 ± 0.12 µM.
For `Cc1ncc([N+](=O)[O-])n1CCOC(=O)NC1CCCCC1` [Compound 1, 2-(2-methyl-5-nitro-1H-imidazol-1-yl)ethyl cyclohexylcarbamate], the CC50 at 48 h ([1]; VERO cells) was greater than 100 µM, the “SI = CC50/IC50 T. vaginalis” value (Trichomonas vaginalis) was greater than 1666 and the IC50 (Trichomonas vaginalis) was 0.06 ± 0.01 µM. The “SI = CC50/IC50 G. duodenalis” value (Giardia duodenalis) was greater than 217 and the IC50 (Giardia duodenalis; Giardia duodenalis, 48 h) was 0.46 ± 0.01 µM.
With `Cc1ncc([N+](=O)[O-])n1CC(C)OC(=O)NC1CCCCC1` (centres unmarked) [Compound 6, 1-methyl-2-(2-methyl-5-nitro-1H-imidazol-1-yl)ethyl cyclohexylcarbamate] the CC50 at 48 h ([1]; VERO cells) was greater than 100 µM, the melting point was 219.2 to 222.7 °C and the “SI = CC50/IC50 T. vaginalis” value (Trichomonas vaginalis) was greater than 11. The IC50 (Trichomonas vaginalis) was 8.64 ± 0.73 µM, the “SI = CC50/IC50 G. duodenalis” value (Giardia duodenalis) was greater than 37 and the IC50 (Giardia duodenalis; Giardia duodenalis, 48 h) was 2.64 ± 0.61 µM.
In the case of `Cc1ncc([N+](=O)[O-])n1CCOC(=O)Nc1ccc(Cl)cc1` [Compound 3, 2-(2-methyl-5-nitro-1H-imidazol-1-yl)ethyl (4-chlorophenyl)carbamate], the CC50 at 48 h ([1]; VERO cells) is reported as greater than 100 µM, the “SI = CC50/IC50 T. vaginalis” value (Trichomonas vaginalis) is reported as greater than 55 and the IC50 (Trichomonas vaginalis) is reported as 1.79 ± 0.12 µM. The “SI = CC50/IC50 G. duodenalis” value (Giardia duodenalis) was greater than 87 and the IC50 (Giardia duodenalis; Giardia duodenalis, 48 h) was 1.14 ± 0.12 µM.
In the case of `Cc1ncc([N+](=O)[O-])n1CCOC(=O)Nc1ccc([N+](=O)[O-])cc1` [Compound 5, 2-(2-methyl-5-nitro-1H-imidazol-1-yl)ethyl (4-nitrophenyl)carbamate], the CC50 at 48 h ([1]; read-out: CC50 VERO Cells) is reported as greater than 100 µM, the “SI = CC50/IC50 T. vaginalis” value (Trichomonas vaginalis) is reported as greater than 16 and the IC50 (Trichomonas vaginalis) is reported as 6.25 ± 0.12 µM. The “SI = CC50/IC50 G. duodenalis” value (Giardia duodenalis) was greater than 41 and the IC50 (Giardia duodenalis; Giardia duodenalis, 48 h) was 2.43 ± 0.02 µM.
In the case of `Cc1ncc([N+](=O)[O-])n1CCO` [Metronidazole, metronidazole, reference compound], the CC50 at 48 h ([1]; VERO cells) is reported as greater than 100 µM and the IC50 (Trichomonas vaginalis) is reported as 0.93 ± 0.12 µM.
For `Cc1ncc([N+](=O)[O-])n1CC(C)OC(=O)Nc1ccc(Cl)cc1` (centres unmarked) [Compound 8, 1-methyl-2-(2-methyl-5-nitro-1H-imidazol-1-yl)ethyl (4-chlorophenyl)carbamate], the CC50 at 48 h ([1]; VERO cells) was greater than 100 µM, the melting point was 268.1 °C (dec.) and the “SI = CC50/IC50 T. vaginalis” value (Trichomonas vaginalis) was greater than 16. The IC50 (Trichomonas vaginalis) was 5.93 ± 0.51 µM, the “SI = CC50/IC50 G. duodenalis” value (Giardia duodenalis) was greater than 24 and the IC50 (Giardia duodenalis; Giardia duodenalis, 48 h) was 4.05 ± 0.24 µM.
With `Cc1ncc([N+](=O)[O-])n1CC(C)OC(=O)Nc1ccc(F)cc1` (centres unmarked) [Compound 9, 1-methyl-2-(2-methyl-5-nitro-1H-imidazol-1-yl)ethyl (4-fluorophenyl)carbamate] the CC50 at 48 h ([1]; VERO cells) was greater than 100 µM, the melting point was 162.3 to 163.5 °C and the “SI = CC50/IC50 T. vaginalis” value (Trichomonas vaginalis) was greater than 20. The IC50 (Trichomonas vaginalis) was 4.82 ± 1.08 µM, the “SI = CC50/IC50 G. duodenalis” value (Giardia duodenalis) was greater than 30 and the IC50 (Giardia duodenalis; Giardia duodenalis, 48 h) was 3.23 ± 0.11 µM.
With `Cc1ncc([N+](=O)[O-])n1CCOC(=O)Nc1ccc(F)cc1` [Compound 4, 2-(2-methyl-5-nitro-1H-imidazol-1-yl)ethyl (4-fluorophenyl)carbamate] the CC50 at 48 h ([1]; VERO cells) was greater than 100 µM, the “SI = CC50/IC50 T. vaginalis” value (Trichomonas vaginalis) was greater than 31 and the IC50 (Trichomonas vaginalis) was 3.22 ± 0.21 µM. For the same compound, the “SI = CC50/IC50 G. duodenalis” value (Giardia duodenalis) was greater than 49 and the IC50 (Giardia duodenalis; Giardia duodenalis, 48 h) was 2.03 ± 0.01 µM.
For `Cc1ncc([N+](=O)[O-])n1CC(C)OC(=O)Nc1ccc([N+](=O)[O-])cc1` (centres unmarked) [Compound 10, 1-methyl-2-(2-methyl-5-nitro-1H-imidazol-1-yl)ethyl (4-nitrophenyl)carbamate], the CC50 at 48 h ([1]; read-out: CC50 VERO Cells) was greater than 100 µM, the melting point was 235.4 °C (dec.) and the “SI = CC50/IC50 T. vaginalis” value (Trichomonas vaginalis) was greater than 10. For the same compound, the IC50 (Trichomonas vaginalis) was 9.99 ± 0.56 µM, the “SI = CC50/IC50 G. duodenalis” value (Giardia duodenalis) was greater than 116 and the IC50 (Giardia duodenalis; Giardia duodenalis, 48 h) was 0.86 ± 0.09 µM.
